Source: article PMC8719067 (Haematologica, 2021)

Key:
[1] = tested on: B-cell lines or primary CLL cells; settings: cited from earlier work
MEC-1 cells [2] = experiment: cell death; format: cell-based; settings: MEC-1, 1, 24 hours
MEC-1 cells [3] = experiment: cell cycle profile; format: cell-based; settings: MEC-1, 24 hours
[4] = tested on: chronic lymphocytic leukemia; settings: patients with CLL, median of 3.4 years of follow-up; cited from earlier work
[5] = tested on: MEC-1 cells overexpressing BTKWT; experiment: reverse-phase protein array; settings: RPPA; for decrease in phospho-ERK: BTKWT cells
[6] = tested on: MEC-1 cells with either wild-type or mutant BTK; experiment: reverse-phase protein array; settings: RPPA
[7] = tested on: PLCg2 phosphorylation in Ramos Burkitt lymphoma cells; experiment: phospho-PLCg2 inhibition in the Ramos cell line; format: cell-based; settings: Homo sapiens, read-out: IC50 of inhibition of PLCg2 phosphorylation
[8] = tested on: BCR pathway in primary CLL cells; experiment: immunoblot of BCR pathway proteins in primary CLL cells; format: cell-based, human; settings: BTKWT and BTKT474F (gate-keeper mutation)
B-cell malignancies = settings: phase 1b clinical trial; cited from earlier work

CC#CC(=O)N1CCC[C@H]1c1nc(-c2ccc(C(=O)Nc3ccccn3)cc2)c2c(N)nccn12 [acalabrutinib]
cell death induced in vitro [1]: limited

C=CC(=O)N1CCC[C@@H](n2nc(-c3ccc(Oc4ccccc4)cc3)c3c(N)ncnc32)C1 [ibrutinib, reference compound]
cell death (MEC-1 cells [2]): 15-20%
cell cycle profiles (MEC-1 cells [3]): did not alter
cell death induced in vitro [1]: limited
cumulative incidence of progression [4]: 19%
decrease in phospho-ERK [5]: 2 log
decrease in PD1 levels (ibrutinib vs vecabrutinib) [6]: larger decrease

NC(=O)[C@H]1CCN(c2ncnc(N)c2F)C[C@@H]1N1CCC[C@@H](Nc2cc(Cl)cc(C(F)(F)F)c2)C1=O [vecabrutinib]
IC50 [7]: 0.013 ± 0.006 µM
cell death (MEC-1 cells [2]): 15-20%
cell cycle profiles (MEC-1 cells [3]): did not alter
BCR pathway (phosphorylation of BTK, ERK, and S6) signaling [8]: inhibited
tolerability (B-cell malignancies): well-tolerated
decrease in phospho-ERK [5]: 2 log
responses for all proteins compared to those to ibrutinib ([5]; WT cells): deeper or similar responses
S727 phosphorylation on STAT3 ([6]; WT and mutant cell lines): decreased
Y705 phosphorylation on STAT3 ([6]; WT and mutant cell lines): decreased
phospho-S6K ([6]; all three cell types, compared to ibrutinib): profoundly decreased
cleaved caspase 7 ([6]; all transduced cell lines): increased
